Values quoted from earlier work, collected in US11833157B2, “Precipitation resistant small molecule drug formulations” (Xeris Pharmaceuticals, Inc., priority 2017, dated 2023).

Tested on: febrile seizures
Conditions: short term diazepam prophylaxis at times of fever; 39% without

SMILES: CN1C(=O)CN=C(c2ccccc2)c2cc(Cl)ccc21 [diazepam]
- 18 month recurrence rate: 12%
